Among the data in publication PMC3950631, “L-Phenylalanine Transport in Saccharomyces cerevisiae: Participation of GAP1, BAP2, and AGP1” (Journal of Amino Acids, 2014) are inhibition values, retold here.

Holding throughout (assay): inhibition of […] L-[…]-phenylalanine uptake into intact yeast cells
Type in all cases: cell-based

The target in one assay is T1, Bap2p (Saccharomyces cerevisiae, UniProt P38084).
T1 construct: gene BAP2; native chromosomal permease in intact yeast cells, full length, plasma membrane; assigned by gene disruption
T1 sequence (P38084 1-609): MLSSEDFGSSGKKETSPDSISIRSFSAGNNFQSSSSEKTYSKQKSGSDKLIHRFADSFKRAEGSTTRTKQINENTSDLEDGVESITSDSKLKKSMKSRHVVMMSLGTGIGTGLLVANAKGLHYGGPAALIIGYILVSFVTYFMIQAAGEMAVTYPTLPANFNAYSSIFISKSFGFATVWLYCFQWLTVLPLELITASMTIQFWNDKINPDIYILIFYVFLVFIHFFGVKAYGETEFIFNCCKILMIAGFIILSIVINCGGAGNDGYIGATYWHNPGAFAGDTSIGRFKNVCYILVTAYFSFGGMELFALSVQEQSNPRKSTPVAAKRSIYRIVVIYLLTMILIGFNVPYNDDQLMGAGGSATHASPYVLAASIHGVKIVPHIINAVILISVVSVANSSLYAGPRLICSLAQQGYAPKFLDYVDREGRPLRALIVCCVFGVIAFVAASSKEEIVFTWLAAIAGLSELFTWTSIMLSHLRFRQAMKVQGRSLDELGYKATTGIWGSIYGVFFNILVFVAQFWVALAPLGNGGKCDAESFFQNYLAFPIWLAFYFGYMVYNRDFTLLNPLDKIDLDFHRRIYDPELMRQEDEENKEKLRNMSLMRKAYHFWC
Particulars: read-out: Percentage inhibition / Y294Δagp1.

A further assay addresses T2, Gap1p (Saccharomyces cerevisiae, UniProt P19145).
T2 construct: gene GAP1; native chromosomal permease in intact yeast cells, full length, plasma membrane; assigned by gene disruption and growth medium
T2 sequence (P19145 1-602): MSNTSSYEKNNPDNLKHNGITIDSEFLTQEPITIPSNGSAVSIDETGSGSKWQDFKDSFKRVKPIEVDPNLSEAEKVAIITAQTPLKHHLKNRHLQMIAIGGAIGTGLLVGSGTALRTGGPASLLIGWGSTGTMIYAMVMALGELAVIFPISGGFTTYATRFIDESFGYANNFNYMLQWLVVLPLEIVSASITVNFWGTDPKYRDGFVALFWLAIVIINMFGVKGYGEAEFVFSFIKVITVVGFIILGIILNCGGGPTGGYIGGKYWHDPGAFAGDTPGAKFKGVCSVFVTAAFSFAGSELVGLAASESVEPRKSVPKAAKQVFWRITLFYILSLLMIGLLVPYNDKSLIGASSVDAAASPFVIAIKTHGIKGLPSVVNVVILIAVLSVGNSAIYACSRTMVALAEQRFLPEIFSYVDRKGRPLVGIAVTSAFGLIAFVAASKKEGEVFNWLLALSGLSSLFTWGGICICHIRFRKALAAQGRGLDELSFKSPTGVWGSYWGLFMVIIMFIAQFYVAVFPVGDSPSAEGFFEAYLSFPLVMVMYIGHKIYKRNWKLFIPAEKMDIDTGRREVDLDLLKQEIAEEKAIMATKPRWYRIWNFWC

The next assay concerns the target T3, Agp1p (Saccharomyces cerevisiae, UniProt P25376).
T3 construct: gene AGP1; native chromosomal permease in intact yeast cells, full length, plasma membrane; assigned by gene disruption
T3 sequence (P25376 1-633): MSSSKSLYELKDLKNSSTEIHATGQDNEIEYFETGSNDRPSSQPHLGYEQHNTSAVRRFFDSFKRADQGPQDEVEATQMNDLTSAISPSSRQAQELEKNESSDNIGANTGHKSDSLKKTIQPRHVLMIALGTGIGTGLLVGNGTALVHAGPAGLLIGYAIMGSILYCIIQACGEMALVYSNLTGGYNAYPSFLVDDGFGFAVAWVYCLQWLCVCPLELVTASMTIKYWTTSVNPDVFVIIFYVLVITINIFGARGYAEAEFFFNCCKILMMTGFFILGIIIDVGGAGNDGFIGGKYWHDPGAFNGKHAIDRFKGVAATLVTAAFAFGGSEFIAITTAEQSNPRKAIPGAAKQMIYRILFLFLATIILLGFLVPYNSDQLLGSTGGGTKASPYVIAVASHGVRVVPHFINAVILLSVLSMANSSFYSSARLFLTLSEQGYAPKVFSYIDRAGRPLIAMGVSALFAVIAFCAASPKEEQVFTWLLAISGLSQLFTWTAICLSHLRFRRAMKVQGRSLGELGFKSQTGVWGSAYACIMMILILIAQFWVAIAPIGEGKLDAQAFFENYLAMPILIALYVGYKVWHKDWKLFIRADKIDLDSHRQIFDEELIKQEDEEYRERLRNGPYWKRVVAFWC

The mark [1] stands for this setting: read-out: Percentage inhibition / Y294Δbap2.
[2] abbreviates: read-out: Percentage inhibition / Y294Δbap2Δgap1 / MP.

Molecules are shown by their SMILES. Like-named read-outs stand apart in the source and are kept apart here.

As to `CC(CC(N)C(=O)O)C(F)(F)F` (racemic) [DL-trifluoroleucine], the inhibition at 200 µM on Bap2p worked out at 48%; at Gap1p (setting [1]) it was 42%. In the case of `CC(C)[C@H](N)C(=O)O` [Valine], on Gap1p (setting [1]), the inhibition at 200 µM was 71%. Consider `NC(Cc1cccs1)C(=O)O` (racemic) [β-2-thienylalanine], for which the inhibition at 200 µM at Bap2p was 67%.

As for `N[C@@H](Cc1ccc(O)cc1)C(=O)O` [Tyrosine], at Gap1p (setting [1]), the inhibition at 200 µM amounted to 81%. For `CC[C@H](C)[C@H](N)C(=O)O` [Isoleucine], the inhibition at 200 µM on Gap1p (read-out: Percentage inhibition / Y294) came out at 71%. In the case of `N[C@@H](Cc1c[nH]c2ccccc12)C(=O)O` [Tryptophan], the inhibition at 200 µM on Agp1p (read-out: Percentage inhibition / Y294Δgap1 / MA) is 18%; on Gap1p (setting [1]), 86%. Regarding `NC(=O)NCCC[C@H](N)C(=O)O` [Citrulline], the inhibition at 200 µM at Gap1p (setting [1]) is 40%. In the case of `NC(=O)C[C@H](N)C(=O)O` [Asparagine], the values for the inhibition at 200 µM on Agp1p (setting [2]) and on Gap1p (setting [1]) were 48% and 37%, respectively. Turning to `CC(C)C[C@H](N)C(=O)O` [Leucine], the inhibition at 200 µM came to 34% on Agp1p (setting [2]), 72% at Bap2p and 75% on Gap1p (setting [1]).
